From patent US20190315823A1, “SMALL CATIONIC ANTI-BIOFILM AND IDR PEPTIDES” (priority 2013, published 2019)
Ends that are not written are not given here.

Legend:
[1] = system: LPS-stimulated human peripheral blood mononuclear cells (IL1-β); assay type: cell-based; details: Table 12, cells stimulated with 10 ng/ml LPS; for IL1β Production: LPS alone 1313 (HH2 derivatives), 1927 (1018 derivatives), 2455 (1002 and hybrid peptides) pg/ml
[2] = system: human peripheral blood mononuclear cells (MCP-1); experiment: SPOT-synthesized derivative screen: production of chemokine MCP-1; assay type: cell-based; details: Table 12, No LPS, human PBMC, peptide at ~18-24 μM; for MCP1: background subtracted 139 (HH2 derivatives), 170 (1018 derivatives), 242 (1002 and hybrid peptides) pg/ml
Outline: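 MCP-1 was quantified by capture ELISA in cleared culture supernatants of treated human peripheral blood mononuclear cells. Cells came from heparinized volunteer blood via Ficoll gradient and were seeded at 0.75 to 1×10^6 cells/ml (37 °C, 5% CO2).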

[3] = system: methicillin resistant Staphylococcus aureus (MRSA) biofilm; details: approximate peptide concentration […] (around 3 μg/ml); compared to untreated samples
Outline: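 Peptide was present from inoculation onward, with bacteria seeded at 1/100 from overnight cultures into BM2 biofilm medium or Luria Broth. Crystal violet staining of surface-attached cells (A595) quantified biofilm reduction at 22–46 h. K. pneumoniae was additionally screened in a real-time Bioflux flow device for some peptides.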

1018-Q7: single substituted 1018 peptide (VRLIVAQRIWRR-NH2) [Peptide 1018-Q7]
Fold change in IL1β relative to no peptide LPS stimulated cells [1]: 1.04
IL1β Production [1]: 1368 pg/mL
Fold increase in MCP1 cf. untreated cells [2]: 0.7
MCP1 [2]: -54 pg/mL
% Biofilm inhibition [3]: 28%

1002-L4: single substituted 1002 peptide (VQRLLIVWRIRK-NH2) [Peptide 1002-L4]
Fold change in IL1β relative to no peptide LPS stimulated cells [1]: 0.12
IL1β Production [1]: 283 pg/mL
Fold increase in MCP1 cf. untreated cells [2]: 3.0
MCP1 [2]: 493.6 pg/mL
% Biofilm inhibition [3]: 33%

1018-Q5: single substituted 1018 peptide (VRLIQAVRIWRR-NH2) [Peptide 1018-Q5]
Fold change in IL1β relative to no peptide LPS stimulated cells [1]: 1.03
IL1β Production [1]: 1354 pg/mL
Fold increase in MCP1 cf. untreated cells [2]: 0.7
MCP1 [2]: -54 pg/mL
% Biofilm inhibition [3]: 13%

1002-K8: single substituted 1002 peptide (VQRWLIVKRIRK-NH2) [Peptide 1002-K8]
Fold change in IL1β relative to no peptide LPS stimulated cells [1]: 0.66
IL1β Production [1]: 1632 pg/mL
Fold increase in MCP1 cf. untreated cells [2]: 0.9
MCP1 [2]: -36.2 pg/mL
% Biofilm inhibition [3]: 0%

HH2-L11: single substituted HH2 peptide (VQLRIRVAVILA-NH2)
Fold change in IL1β relative to no peptide LPS stimulated cells [1]: 1.09
IL1β Production [1]: 1425 pg/mL
Fold increase in MCP1 cf. untreated cells [2]: 40
MCP1 [2]: 6545 pg/mL
% Biofilm inhibition [3]: 47%

HH2-W12: single substituted HH2 peptide (VQLRIRVAVIRW-NH2)
Fold change in IL1β relative to no peptide LPS stimulated cells [1]: 0.32
IL1β Production [1]: 420 pg/mL
Fold increase in MCP1 cf. untreated cells [2]: 44
MCP1 [2]: 7325 pg/mL
% Biofilm inhibition [3]: 58%

1002-I9: single substituted 1002 peptide (VQRWLIVWIIRK-NH2) [Peptide 1002-I9]
Fold change in IL1β relative to no peptide LPS stimulated cells [1]: 0.06
IL1β Production [1]: 158 pg/mL
Fold increase in MCP1 cf. untreated cells [2]: 3.5
MCP1 [2]: 605.9 pg/mL
% Biofilm inhibition [3]: 53%

1018-G6: single substituted 1018 peptide (VRLIVGVRIWRR-NH2) [Peptide 1018-G6]
Fold change in IL1β relative to no peptide LPS stimulated cells [1]: 0.46
IL1β Production [1]: 598 pg/mL
Fold increase in MCP1 cf. untreated cells [2]: 22
MCP1 [2]: 3560 pg/mL
% Biofilm inhibition [3]: 36%

1002-I8: single substituted 1002 peptide (VQRWLIVIRIRK-NH2) [Peptide 1002-I8]
Fold change in IL1β relative to no peptide LPS stimulated cells [1]: 0.06
IL1β Production [1]: 144 pg/mL
Fold increase in MCP1 cf. untreated cells [2]: 6.7
MCP1 [2]: 1393.2 pg/mL
% Biofilm inhibition [3]: 69%

1002-K5: single substituted 1002 peptide (VQRWKIVWRIRK-NH2) [Peptide 1002-K5]
Fold change in IL1β relative to no peptide LPS stimulated cells [1]: 0.14
IL1β Production [1]: 339 pg/mL
Fold increase in MCP1 cf. untreated cells [2]: 3.4
MCP1 [2]: 592.6 pg/mL
% Biofilm inhibition [3]: 79%

HH2-R2: single substituted HH2 peptide (VRLRIRVAVIRA-NH2)
Fold change in IL1β relative to no peptide LPS stimulated cells [1]: 1.10
IL1β Production [1]: 1438 pg/mL
Fold increase in MCP1 cf. untreated cells [2]: 4.6
MCP1 [2]: 604 pg/mL
% Biofilm inhibition [3]: 54%

1002-I3: single substituted 1002 peptide (VQIWLIVWRIRK-NH2) [Peptide 1002-I3]
Fold change in IL1β relative to no peptide LPS stimulated cells [1]: 0.05
IL1β Production [1]: 127 pg/mL
Fold increase in MCP1 cf. untreated cells [2]: 13.2
MCP1 [2]: 2953.7 pg/mL
% Biofilm inhibition [3]: 62%

HH2-G6: single substituted HH2 peptide (VQLRIGVAVIRA-NH2)
Fold change in IL1β relative to no peptide LPS stimulated cells [1]: 1.08
IL1β Production [1]: 1423 pg/mL
Fold increase in MCP1 cf. untreated cells [2]: 8.6
MCP1 [2]: 1287 pg/mL
% Biofilm inhibition [3]: 33%

1018-K1: single substituted 1018 peptide (KRLIVAVRIWRR-NH2) [Peptide 1018-K1]
Fold change in IL1β relative to no peptide LPS stimulated cells [1]: 0.13
IL1β Production [1]: 173 pg/mL
Fold increase in MCP1 cf. untreated cells [2]: 1.2
MCP1 [2]: 40 pg/mL
% Biofilm inhibition [3]: 49%

HH2-V10: single substituted HH2 peptide (VQLRIRVAVVRA-NH2)
Fold change in IL1β relative to no peptide LPS stimulated cells [1]: 1.06
IL1β Production [1]: 1390 pg/mL
Fold increase in MCP1 cf. untreated cells [2]: 36
MCP1 [2]: 5929 pg/mL
% Biofilm inhibition [3]: 68%

1018-L10: single substituted 1018 peptide (VRLIVAVRILRR-NH2) [Peptide 1018-L10]
Fold change in IL1β relative to no peptide LPS stimulated cells [1]: 0.10
IL1β Production [1]: 127 pg/mL
Fold increase in MCP1 cf. untreated cells [2]: 0.7
MCP1 [2]: -60 pg/mL
% Biofilm inhibition [3]: 38%

1018-G2: single substituted 1018 peptide (VGLIVAVRIWRR-NH2) [Peptide 1018-G2]
Fold change in IL1β relative to no peptide LPS stimulated cells [1]: 0.10
IL1β Production [1]: 127 pg/mL
Fold increase in MCP1 cf. untreated cells [2]: 2.6
MCP1 [2]: 267 pg/mL
% Biofilm inhibition [3]: 59%

1002-L10: single substituted 1002 peptide (VQRWLIVWRLRK-NH2) [Peptide 1002-L10]
Fold change in IL1β relative to no peptide LPS stimulated cells [1]: 0.05
IL1β Production [1]: 127 pg/mL
Fold increase in MCP1 cf. untreated cells [2]: 3.0
MCP1 [2]: 493.6 pg/mL
% Biofilm inhibition [3]: 65%

1018-K10: single substituted 1018 peptide (VRLIVAVRIKRR-NH2) [Peptide 1018-K10]
Fold change in IL1β relative to no peptide LPS stimulated cells [1]: 0.24
IL1β Production [1]: 310 pg/mL
Fold increase in MCP1 cf. untreated cells [2]: 3.3
MCP1 [2]: 390 pg/mL
% Biofilm inhibition [3]: 63%

1002-G1: single substituted 1002 peptide (GQRWLIVWRIRK-NH2) [Peptide 1002-G1]
Fold change in IL1β relative to no peptide LPS stimulated cells [1]: 0.05
IL1β Production [1]: 127 pg/mL
Fold increase in MCP1 cf. untreated cells [2]: 14.8
MCP1 [2]: 3335.7 pg/mL
% Biofilm inhibition [3]: 68%

1002-Q11: single substituted 1002 peptide (VQRWLIVWRIQK-NH2) [Peptide 1002-Q11]
Fold change in IL1β relative to no peptide LPS stimulated cells [1]: 0.05
IL1β Production [1]: 127 pg/mL
Fold increase in MCP1 cf. untreated cells [2]: 13.5
MCP1 [2]: 3022.9 pg/mL
% Biofilm inhibition [3]: 67%

HH2-G5: single substituted HH2 peptide (VQLRGRVAVIRA-NH2)
Fold change in IL1β relative to no peptide LPS stimulated cells [1]: 1.27
IL1β Production [1]: 1672 pg/mL
Fold increase in MCP1 cf. untreated cells [2]: 2.9
MCP1 [2]: 321 pg/mL
% Biofilm inhibition [3]: 34%

1002-A2: single substituted 1002 peptide (VARWLIVWRIRK-NH2) [Peptide 1002-A2]
Fold change in IL1β relative to no peptide LPS stimulated cells [1]: 0.05
IL1β Production [1]: 127 pg/mL
Fold increase in MCP1 cf. untreated cells [2]: 2.0
MCP1 [2]: 245.4 pg/mL
% Biofilm inhibition [3]: 68%

1002-G4: single substituted 1002 peptide (VQRGLIVWRIRK-NH2) [Peptide 1002-G4]
Fold change in IL1β relative to no peptide LPS stimulated cells [1]: 0.29
IL1β Production [1]: 723 pg/mL
Fold increase in MCP1 cf. untreated cells [2]: 1.1
MCP1 [2]: 33.0 pg/mL
% Biofilm inhibition [3]: 42%
